# Laboratory results: US6603023B2 (priority 1996, dated 2003)
# “And” between values parts separate entries of the source, which are not always exact repeats. Equal values may be shown once. “Also recorded” adds a separate entry of the source. Read-outs that look alike come from different tables or passages of the source. Marks after values point to notes of the source that are not given here.
# System: human mammary carcinoma MX-1 xenograft
# Design: Toxicity toward Nude Mice: key to the marks not given beside the values
# Conditions: for Toxicity toward Nude Mice: based on body weight decrease or lethality; for Therapeutic Effect against MX-1 Xenograft: based on tumor volume reduction vs untreated control
# Method: DMSO was used as a vehicle for epothilones. Each mouse received ≦40 μL DMSO in all experiments.
# Athymic nude mice (nu/nu) were used for MX-1 and MCF-7/Adr human mammary carcinoma xenografts. Mice were obtained from Taconic Laboratory Animals and Service (Germantown, N.Y.: outbred, Swiss background).
# [1] = 40 mg/kg i.p. d18-26, extended after d8-16, day 22
# [2] = 40 mg/kg i.p. d18-26, extended after d8-16, day 24
# [3] = 40 mg/kg i.p. d18-26, extended after d8-16, day 26
# [4] = 40 mg/kg i.p. d18-26, extended after d8-16, day 28
# [5] = dEpo B 15 mg/kg i.v. Q2Dx5 from day 9
# [6] = dEpo B 15 mg/kg i.v. Q2Dx5 from day 9, day 13
# [7] = dEpo B 15 mg/kg i.v. Q2Dx5 from day 9, day 15
# [8] = dEpo B 15 mg/kg i.v. Q2Dx5 from day 9, day 17
# [9] = dEpo B 15 mg/kg i.v. Q2Dx5 from day 9, day 19
# [10] = i.p., Cremophor-EtOH, 15 mg/kg Q2D x 5 (dose of dEpoB)
# [11] = i.p., DMSO, 35 mg/kg Q2D x 5 (dose of dEpoB)
# [12] = i.v. infusion 6 hr, Cremophor-EtOH, 30 mg/kg Q2D x 5 (dose of dEpoB)
# [13] = i.v. infusion 24 hr, Cremophor-EtOH, 60 mg/kg Q4D x 2 (dose of dEpoB)
# [14] = i.v. injection, DMSO, 15 mg/kg Q2D x 5 (dose of dEpoB)
# [15] = i.v. injection, DMSO, 24 mg/kg Q2D x 5 (dose of dEpoB)
smiles,measurement,setting,value
"C/C1=C/C[C@@H](/C(C)=C/c2csc(C)n2)OC(=O)C[C@H](O)C(C)(C)C(=O)[C@H](C)[C@@H](O)[C@@H](C)CCC1 [Desoxyepothilone B, desoxyepothilone B]",Tumor Disappearance,"40 mg/kg i.p. d18-26, extended after d8-16, day 20",2/10^b
same,Average Body Weight Change,[1],-2.4 g
same,Tumor Disappearance,[1],2/10
same,Average Body Weight Change,[2],-2.4 g
same,Tumor Disappearance,[2],3/10
same,Average Body Weight Change,[3],-1.4 g
same,Tumor Disappearance,[3],5/10
same,Average Body Weight Change,[4],-1.2 g
same,Tumor Disappearance,[4],5/10
same,lethality and body weight,15 and 25 mg/kg i.p. days 7-15,no lethality nor body weight reduction
same,therapeutic outcome,"25-40 mg/kg, Q2Dx5, i.p.",marked tumor regression and cures
same,therapeutic outcome,6 hr i.v. infusion,full cure
same,Toxicity Death,[5],4/6^b
same,Tumor Disapp.,[5],0/6
same,Average Body Weight Change,[6],0 g
same,Average Tumor Size (T/C),[6],0.47
same,Average Body Weight Change,[7],-0.6 g
same,Average Tumor Size (T/C),[7],0.30
same,Average Body Weight Change,[8],-1.1 g
same,Average Tumor Size (T/C),[8],0.10
same,Average Body Weight Change,[9],-2.6 g
same,Average Tumor Size (T/C),[9],0.04
same,tumor size treated/control,"dEpoB 35 mg/kg i.p. Q2Dx5, day 19",0.02
same,mice with tumor disappearing on day 28 (or day 31),"extended 40 mg/kg i.p. every other day from day 18, 5 more doses",5 out of 10
same,Average Tumor Disappearance Duration,"extended experiment, Desoxyepo B 40 mg/kg i.p., in 5/10 mice",44 (5/10) Day
same,Toxicity toward Nude Mice,[10],+++++
same,Therapeutic Effect against MX-1 Xenograft,[10],+
same,Toxicity toward Nude Mice,[11],++
same,Therapeutic Effect against MX-1 Xenograft,[11],+++++
same,Toxicity toward Nude Mice,[12],++
same,Therapeutic Effect against MX-1 Xenograft,[12],+++++
same,Toxicity toward Nude Mice,[13],+++
same,Therapeutic Effect against MX-1 Xenograft,[13],+++++
same,Toxicity toward Nude Mice,[14],+++
same,Therapeutic Effect against MX-1 Xenograft,[14],++
same,Toxicity toward Nude Mice,[15],+++
same,Therapeutic Effect against MX-1 Xenograft,[15],++
same,# Died of toxicity,"mouse, in vivo",0/10
same,"Average Body Weight (change), Day 14","mouse, in vivo",-2.7 g
same,"Average Body Weight (change), Day 16","mouse, in vivo",-4.0 g
same,"Average Body Weight (change), Day 18","mouse, in vivo",-4.5 g
same,"Average Body Weight (change), Day 20","mouse, in vivo",-6.8 g
same,"Average Body Weight Change, Day 20","mouse, in vivo",-1.7 g
same,"Average Body Weight Change, Day 22","mouse, in vivo",-2.4 g
same,"Average Body Weight Change, Day 24","mouse, in vivo",-2.4 g
same,"Average Body Weight Change, Day 26","mouse, in vivo",-1.4 g
same,"Average Body Weight Change, Day 28","mouse, in vivo",-1.2 g
same,"Average Tumor Size (T/C), Day 14","mouse, in vivo",0.19 T/C
same,"Average Tumor Size (T/C), Day 16","mouse, in vivo",0.10 T/C
same,"Average Tumor Size (T/C), Day 18","mouse, in vivo",0.03 T/C
same,Died,"mouse, in vivo",0/10
same,Lowest Average Tumor Size (T/C),"mouse, in vivo",0 T/C
same,Therapeutic Effects dEpoB vs Taxol,"mouse, in vivo",≅
same,Tumor Disappearance,"mouse, in vivo",3/3 and 5/5
same,"Tumor Disappearance, Day 20","mouse, in vivo",2.10^b
same,"Tumor Disappearance, Day 22","mouse, in vivo",2/10
same,"Tumor Disappearance, Day 24","mouse, in vivo",3/10
same,"Tumor Disappearance, Day 26","mouse, in vivo",5/10
same,"Tumor Disappearance, Day 28","mouse, in vivo",5/10
same,Therapeutic effect Rank Order,"mouse, in vivo, ip",dEpoB > Camptothecin >; also recorded: dEpoB > Adriamycin > Taxol ®
same,Therapeutic effect Rank Order,"mouse, in vivo, iv",Taxol ® ≈ dEpoB
same,"Tumor Size, individual mice, Day 60","surviving mice 4, 5, 9, 35 mg/kg on day 8-16, 40 mg/kg on day 18-26, then no treatment",0 mm^3 (2×) and 4 mm^3
